Data on three compounds can be found in patent publication US20130225597A1, “USE OF PHOSPHODIESTERASE INHIBITOR TO ENHANCE POST-SURGICAL ERECTION IN MEN UNDERGOING RADICAL PROSTATECTOMY” (University of Medicine and Dentistry of New Jersey, priority 2010, published 2013).

Where a name gives a salt, the structure may show the parent alone.

The test system of one test is PC12 neuronal cell. Description: Neuronal survival of hydrogen peroxide treated PC-12 cells. The format is cell-based. The settings on record: 1 mM H2O2 for 1 hour, 24 hours incubation, viable cells counted. Here is the method:
Neuronal Survival Experiments. For survival experiments, PC12 neuronal cell were seeded in 6-well plates at a density of 1×10^5 per well in Dulbecco's modified Eagle's medium (DMEM) supplemented with 1% fetal bovine serum (FBS) and 100 ng/ml nerve growth factor (NGF), herein after (“Media”), for 3 days. Media was changed every 3 days. Cells were treated in the presence or absence of 1 mM hydrogen peroxide (H2O2) for 1 hour in the presence or absence of either sildenafil Citrate, vardenafil, or tardalafil at 0.1-fold physiologic dose (0.5 μM, 0.3 μM and 0.4 μM, respectively), physiologic dose (5 μM, 3 μM and 4 μM, respectively) and 10-fold physiologic dose (50 μM, 30 μM and 40 μM, respectively). Treated cells were incubated for 24 hours at 37° C. Viable cells were detached and counted using an automated counter.

The test system of test [1] is post-radical prostatectomy erection dysfunction. Briefly: Clinical study: sildenafil citrate at the operative site in robot-assisted radical prostatectomy, potency recovery. The conditions noted are these: 147 men. The format is in vivo, humans. How it is done: Clinical Studies. For effective study in humans, 147 men that underwent robot-assisted radical prostatectomy were treated with sildenafil citrate at the operative site. Potency was reported in 24.2%, 84.2% and 93.3% of the subjects at three, six, and twelve months post-operative, respectively.

For test [2], the system named is spinal motor and non-motor neurons. The conditions noted are these: cited from earlier work.

For the compound `COc1ccc(C2CNC(=O)C2)cc1OC1CCCC1` (centres unmarked) [rolipram], the “protection against H2O2-induced cell death (neuronal viability)” value in the test on PC12 neuronal cell is “significant protection”. For the compound `CCCc1nn(C)c2c(=O)[nH]c(-c3cc(S(=O)(=O)N4CCN(C)CC4)ccc3OCC)nc12` [sildenafil citrate], the “Potency reported, % of subjects” value in test [1] (six months post-operative) came out at 84.2%; in test [1] (three months post-operative), 24.2%; in test [1] (twelve months post-operative), 93.3%. Regarding `CCCOc1ccccc1-c1nc2nn[nH]c2c(=O)[nH]1` [zaprinas], the “protection against acute Reactive Oxygen Species-induced neurotoxicity” value in test [2] is listed as “protect”.
